Measurements from PubChem BioAssay AID504562 (Southern Research Specialized Biocontainment Screening …, 2011).
Active and inactive are the calls of the source. How the calls were made is not given here. Residues, ends and D or L forms follow the SMILES beside them. *: point of attachment. Cbz = O=C(OCc1ccccc1)*

Key:
[1] = mammalian cell cytotoxicity, dose response, cytotoxicity control for M. tuberculosis growth inhibitor project, purified and synthesized compounds, set 2 (AID 504562); conditions: mammalian cell viability, cytotoxicity counter-screen; at 100 µM (top of the series)
[2] = tested on: mammalian cell viability, cytotoxicity counter-screen; assay: as above

SMILES | viability [1] | CC50 [2] [µM]
CCc1ccc(/C=C2/C(=O)N(C)C(=S)N2CC(=O)OC)s1 | 101% (inactive) | –
CCOC(=O)COc1ccc(/C=C2\NC(=S)N(CC)C2=O)cc1 | 91.2% (inactive) | –
COC(=O)CCc1nc2c(C#N)c(-c3ccc(Cl)cc3)ccn2n1 | 99.6% (inactive) | –
S=c1nc[nH]c2nc[nH]c12 | – | 38.1
O=C(CSc1nc2ccccc2c(=O)[nH]1)NC1CCCCC1 | 97.5% (inactive) | –
COc1cc(NC(=O)C/C(C)=N/NC(=O)c2ccccn2)c(OC)cc1Cl | 103% (inactive) | –
Cc1ccc2c(c1)c(C1=c3ccccc3=NC1=O)c(O)n2C | – | 14.3
COC(=O)C(C)Oc1ccc(-c2nccc(-c3ccccn3)n2)cc1 (stereo unspecified) | 100% (inactive) | –
COC(=O)C(Nc1nc(SCC(=O)NC2CCCCC2)nc2ccccc12)c1ccccc1 (stereo unspecified) | – | 88
Cc1ccc(C(=O)N/N=C(/CC(=O)c2cccs2)C(F)(F)F)cc1 | – | 31.7
CCOC(=O)COn1c2c(c3c4no[n+]([O-])c4ccc31)CCCC2 | 87.9% (inactive) | –
O=C(/C=C\c1cccs1)N1CCN(Cc2ccc3c(c2)OCO3)CC1 | 91.2% (inactive) | –
Cc1cccc(/C=C/C(=O)c2ccc([N+](=O)[O-])o2)c1 | – | 53.1
CCC(C)Nc1ccc(NC(C)CC)cc1 (stereo unspecified) | – | 16.5
COC(=O)C1CC(=O)N(c2ccc(OCc3ccccc3Cl)cc2)C1 (stereo unspecified) | 100% (inactive) | –
CNc1nc(SCc2ccccc2Cl)nc2c1CCCC2 | – | 46.1

SMILES | viability [1] | CC50 [2] [µM]
Cc1ccc(NC(=O)C2C3/C=C\CCCCC32)cc1C (stereo unspecified) | 97% (inactive) | –
CCOC(=O)c1ccc(NC(=O)Cn2ncc(Cl)c(Cl)c2=O)cc1 | – | 7.7
COC(=O)c1cc(=O)n(-c2ccc(F)cc2)c(=Nc2ccc(F)cc2)s1 | – | 20.8
O=C1C(Br)=Cc2cccc3cccc1c23 | 89.2% (inactive) | –
CC[N+](C)(CC)CCCCOc1ccc2c(c1)C(=O)c1cc(OCCCC[N+](C)(CC)CC)ccc1-2 | 101% (inactive) | –
CC1CCN(C(=O)C2CCN(c3nnc(-n4cccc4)s3)CC2)CC1 | 92.8% (inactive) | –
COC(=O)c1ccc(CNc2c(N3CCCC3)c(=O)c2=O)cc1 | 97.3% (inactive) | –
CCOC(=O)CNC(=O)[C@H](Cc1ccccc1)NC(=O)OCc1ccccc1 (Cbz-Phe-Gly-OEt) | – | 68.9
CC(C)NC(=O)c1sc(=S)n2c1[nH]c(=O)c1ccc(C(=O)NCCc3ccc(Cl)cc3)cc12 | – | 68.8
O=C(CSc1nc2ccccc2c(=O)[nH]1)NCc1ccc(Cl)cc1 | 89.5% (inactive) | –
Cc1nc(SCC(=O)NC2CCCCC2)[nH]c(=O)c1C | 91.7% (inactive) | –
Nc1c(C(=O)NC2CCCCC2)nsc1C(=O)OCC(=O)NC1CCCCC1 | 93.5% (inactive) | –
Cc1ccc2ccc3ccc(C)nc3c2n1 | 68.3% (inactive) | –
CCOC1OC(=O)C(Cl)=C1Nc1ccccc1C (stereo unspecified) | 91.1% (inactive) | –
CC(=NCc1ccc2c(c1)OCO2)C1=C(O)c2ccccc2C1=O | 88.7% (inactive) | –
